PubChem BioAssay (NCI)
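Values below derive from 48-hour exposures of cells grown in 96-well plates, with endpoints linearly interpolated between the two concentrations bracketing the appropriate inhibition level. Abbreviation: GI50, concentration required for 50% inhibition of growth. TGI marks complete inhibition of growth.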

How the values were obtained:
Test in all cases: NCI tumour cell line growth inhibition, 48 h
HL-60(TB) leukemia = test system: HL-60(TB) leukemia
DU-145 prostate = test system: DU-145 prostate
HOP-92 NSCLC = test system: HOP-92 NSCLC
UACC-62 melanoma = test system: UACC-62 melanoma
UO-31 renal = test system: UO-31 renal
COLO 205 colon = test system: COLO 205 colon
SF-539 CNS = test system: SF-539 CNS
T-47D breast = test system: T-47D breast
EKVX NSCLC = test system: EKVX NSCLC
LOX IMVI melanoma = test system: LOX IMVI melanoma

Row | SMILES | TGI (HL-60(TB) leukemia) [µM] | TGI (DU-145 prostate) [µM] | TGI (HOP-92 NSCLC) [µM] | TGI (UACC-62 melanoma) [µM] | TGI (UO-31 renal) [µM] | TGI (COLO 205 colon) [µM] | TGI (SF-539 CNS) [µM] | TGI (T-47D breast) [µM] | TGI (EKVX NSCLC) [µM] | TGI (LOX IMVI melanoma) [µM] | GI50 (HL-60(TB) leukemia) [µM] | GI50 (DU-145 prostate) [µM] | GI50 (HOP-92 NSCLC) [µM] | GI50 (UACC-62 melanoma) [µM] | GI50 (UO-31 renal) [µM] | GI50 (COLO 205 colon) [µM] | GI50 (SF-539 CNS) [µM] | GI50 (T-47D breast) [µM] | GI50 (EKVX NSCLC) [µM] | GI50 (LOX IMVI melanoma) [µM]
1 | Clc1ncnc2c1nc(C#Cc1ccccc1)n2C1CCCCO1 (centres undefined) | 6.94 | 2.79 | 3.83 | 5.84 | 3.38 | 2.97 | 4.28 | 4.55 | 3.67 | 4.79 |  |  |  |  |  |  |  |  |  | 
2 | OCC(S)CS.[Bi] (centres undefined) | 46.4 | 68.5 | 44.6 | 38.5 | 34.1 | 30 | > 100 | 31.5 | 45.4 | > 100 |  |  |  |  |  |  |  |  |  | 
3 | Cc1ccc2c(c1)Nc1ccccc1P2(=O)O | > 100 | > 100 | > 100 | > 100 | > 100 | > 100 | > 100 | > 100 | > 100 | > 100 |  |  |  |  |  |  |  |  |  | 
4 | CCCCCCCCCCCCCCCCCCNc1nc(=O)n(C2CC(OP(=O)(O)OCC3OC(n4cc(F)c(=O)[nH]c4=O)CC3O)C(CO)O2)cc1F (centres undefined) | 20.3 | > 100 | > 100 | 51.1 | 44.2 | > 100 | 43.9 | > 100 | > 100 | > 100 |  |  |  |  |  |  |  |  |  | 
5 | Cn1c(-c2c(C3=CC(=O)N(c4ccccc4)C3=O)c3ccccc3n2C)cc2ccccc21 | > 100 | > 100 | > 100 | > 100 | > 100 | > 100 | > 100 | > 100 | > 100 | > 100 |  |  |  |  |  |  |  |  |  | 
6 | CC(C)=CCC[C@@H](C)C1=C(O)C(Nc2ccccc2)=C(C)C(=O)C1=O | 24.4 | > 74.2 | > 78.3 | 54.5 | 46.4 | > 61.8 | 84.8 | 59.7 | > 100 | > 100 |  |  |  |  |  |  |  |  |  | 
7 | COc1cc(-c2nc(SC)nc3c2CCc2ccccc2-3)cc(OC)c1OC | > 100 | > 100 | > 100 | > 100 | > 100 | > 100 | > 100 | > 100 | 92.8 | > 100 |  |  |  |  |  |  |  |  |  | 
8 | O=NNc1c[nH]c(=O)[nH]c1=O | > 100 | > 100 | > 100 | > 100 | > 100 | > 100 | > 100 | > 100 | > 100 | > 100 |  |  |  |  |  |  |  |  |  | 
9 | CCN(CC)C(=O)c1cc([N+](=O)[O-])c(=O)n2c1[nH]c1ccccc12 | > 100 | > 100 | > 100 | > 100 | > 100 | > 100 | > 100 | > 100 | > 100 | > 100 |  |  |  |  |  |  |  |  |  | 
10 | COc1ccc(/C=C(/c2ccc(OC)cc2)c2c(Cl)cc(Cl)c(/C(=C\c3ccc(OC)cc3)c3ccc(OC)cc3)c2N=Nc2ccccc2)cc1 | > 100 | > 100 | > 100 | > 100 | > 100 | > 100 | > 100 | > 100 | > 100 | > 100 |  |  |  |  |  |  |  |  |  | 
11 | O=C(O)C1CSC2(CCCN(Cc3ccccc3)C2)N1 (centres undefined) | > 100 | > 100 | > 100 | > 100 | > 100 | > 100 | > 100 | > 100 | > 100 | > 100 |  |  |  |  |  |  |  |  |  | 
12 | CCOC(=O)C1=C(C)N(Cc2ccccc2)C2(O)C(OC)CC(=O)C3C(=O)N(c4ccccc4)C(=O)C132 (centres undefined) | > 100 | 15.1 | 44.5 | 21.6 | 33 | > 100 | 48.6 | 30.5 | 60 | > 100 |  |  |  |  |  |  |  |  |  | 
13 | O=C(CN1CCN(c2ccccn2)CC1)N1CCCn2c1nc1ccccc1c2=O | > 100 | > 100 | > 100 | > 100 | > 100 | > 100 | > 100 | > 100 | > 100 | > 100 |  |  |  |  |  |  |  |  |  | 
14 | CC(C)(C)OC(=O)NNCC(O)COc1ccccc1 (centres undefined) | > 100 | > 100 | > 100 | > 100 | > 100 | > 100 | > 100 | > 100 | > 100 | > 100 |  |  |  |  |  |  |  |  |  | 
15 | COc1ccc(/C=C2\OC(=O)C(Cl)=C2c2ccc(OC)c(Cl)c2)cc1 | > 100 | > 100 | 46.1 | 80 | 48.2 | > 100 | 33.2 | > 100 | 51.8 | > 100 |  |  |  |  |  |  |  |  |  | 
16 | CCOC(=O)CCC(NC(=O)c1ccc(Nc2nc3ccccc3nc2C(=O)OCC)s1)C(=O)OCC (centres undefined) | > 100 | > 100 | > 100 | > 100 | > 100 | > 100 | > 100 | > 100 | > 100 | > 100 |  |  |  |  |  |  |  |  |  | 
17 | CC1CN=C(c2ccc(CN3CCC(CCCC4CCN(Cc5ccc(C6=NCC(C)N6)cc5)CC4)CC3)cc2)N1 (centres undefined) | > 100 | > 100 | > 100 | > 100 | > 100 | 33 | > 100 | > 100 | 92 | > 100 |  |  |  |  |  |  |  |  |  | 
18 | COc1ccc(S(=O)(=O)Nc2cc(Sc3cccc4cccnc34)c(O)c3ccccc23)cc1 | 4.94 | 2.65 | 5.93 | 6.83 | 8.61 | 4.12 | 6.52 | 5.64 | 10.9 |  | 1.18 | 0.738 | 1.55 | 2.04 | 0.926 | 1.66 | 1.49 | 1.73 | 1.44 | 0.372
